Measurements from ChEMBL document CHEMBL4251689, “Azabicyclic Fused Pyrimidine Derivatives Useful for the Treatment of Alzheimer's Disease” (ACS Med Chem Lett, 2018).
pEC50: −log10 of the molar value.

target: Gamma-secretase; assay: Inhibition of gamma-secretase (unknown origin) assessed as reduction in amyloid beta (1 to 42) production after 60 mins by cell based AlphaLisa assay; design: species or system Homo sapiens

| pEC50 | SMILES |
| --- | --- |
| 7.46 | CNc1nc(N[C@@H]2[C@@H]3CC[C@H]2CN(c2cc(C)ncn2)C3)nc2c1C(C)(C)CCN2c1ccc(F)cc1 |
| 7.72 | CNc1nc(N[C@@H]2[C@@H]3CC[C@H]2CN(c2ccnnc2)C3)nc2c1C(C)(C)CN2c1ccc(F)cc1 |
| 6.95 | CNc1nc(N[C@@H]2[C@@H]3CC[C@H]2CN(c2cc(C)ncn2)C3)nc2c1C(C)(C)CN2C12CC(C(F)(F)F)(C1)C2 |
| 7.47 | CNc1nc(N[C@@H]2[C@@H]3CC[C@H]2CN(c2nnc(C)o2)C3)nc2c1C(C)(C)CN2c1ccc(F)cc1 |
| 7.85 | CNc1nc(N[C@@H]2[C@@H]3CC[C@H]2CN(c2cc(C)ncn2)C3)nc2c1C(C)(C)CN2c1ccc(F)cc1 |
| 7.44 | CNc1nc(N[C@@H]2[C@@H]3CC[C@H]2CN(c2cc(C)ncn2)C3)nc2c1C(C)(C)CN2C1CC(F)(F)C1 |
